According to PubChem BioAssay AID179 (DTP/NCI, 2004):
The source made the active and inactive calls.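 Rule for the calls: active = compounds giving half or more protection of infected cells from virus-caused growth loss, again on retest; inactive = the rest.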

System: CEM cells HIV-1 protection, formazan growth assay
Experiment: NCI AIDS Antiviral Assay
Conditions: for IC50: measured here: growth of uninfected CEM cells
Summary of the method: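 Steps: treat uninfected and HIV-1-infected human CEM cells at five drug levels; quantify growth by soluble formazan; retest any compound reaching 50% protection; classify actives from the retest.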

With S=C(/N=c1/sc(Nc2ccccc2)nc2sc3c(c12)CCCC3)Nc1ccccc1 the EC50 was over 126 µM and the IC50 was over 126 µM.
COc1cc(CCCOC(=O)/C=C/c2ccc(O)c(O)c2)cc(O)c1O gave an EC50 of over 200 µM and an IC50 of over 200 µM.
Compound c1cnn(C23C4C5C6C4C2C6C53)c1 (stereo not given) has an EC50 of over 200 µM and an IC50 of over 200 µM.
Compound CN(C)c1ccc(/C=C(\C#N)c2cccc(F)c2)cc1 has an EC50 of over 2 µM and an IC50 of 0.141 µM.
Work on Cc1cc([N+](=O)[O-])c(C)c2c1[nH]c1ccc(O)cc12 yielded an EC50 of over 38.9 µM and an IC50 of 6.92 µM.
Compound Cc1ccc2c(c1)[nH]c1cc(C(F)(F)F)ccc1[p+]2=O (stereo not given) has an EC50 of over 200 µM and an IC50 of 26.3 µM.
COc1ccc(-c2c3c(n(C4OC(CO)C(O)C(O)C4O)c(=S)c2C#N)CCCC3)cc1 (stereo not given) was tested, and the EC50 was over 200 µM and the IC50 was 55 µM.
For O=c1c2c([nH]c3nccn13)CCC2, the EC50 was over 200 µM and the IC50 was over 200 µM.
In the case of O=C(O)[C@H]1C[C@H](O)CN1C(=O)c1ccccc1SSc1ccccc1C(=O)N1C[C@H](O)C[C@H]1C(=O)O, the EC50 is reported as over 200 µM and the IC50 is reported as over 200 µM.
Compound O=C(NC(=Nc1ccccc1)SCSC(=Nc1ccccc1)NC(=O)c1ccc(Cl)cc1)c1ccc(Cl)cc1 has an EC50 of over 100 µM and an IC50 of over 100 µM.
In the case of CCC(=O)C(CCN1CCC(N2C(=O)C(CCC#N)c3ccccc32)CC1)(c1ccccc1)c1ccccc1 (stereo not given), the EC50 is reported as over 200 µM and the IC50 is reported as 28.8 µM.
O=c1oc2ccccc2c(O)c1C(c1cccc(C(c2c(O)c3ccccc3oc2=O)c2c(O)c3ccccc3oc2=O)c1)c1c(O)c2ccccc2oc1=O showed an EC50 of 42.7 µM and an IC50 of over 100 µM.
Work on [N-]=[N+]=CC(=O)CCC(=O)N(c1ccccc1)c1ccccc1 yielded an EC50 of 135 µM and an IC50 of 195 µM.
COc1cc2c(c(OC)c1OC)C(=O)[C@@H](O)[C@H]2N was tested, and the EC50 was over 200 µM and the IC50 was over 100 µM.
With CN=C(NN)NS(=O)(=O)c1cc(C)c(Cl)cc1S the outcome was “inactive”.
Compound C[N+](C)(CCOc1ccccc1)Cc1cccs1 has an EC50 of over 200 µM and an IC50 of over 200 µM.
With N#Cc1nc(CCCN2C(=O)c3ccccc3C2=O)oc1N the EC50 was over 200 µM and the IC50 was over 200 µM.
Work on CN=c1sc2nc(C#N)c(C#N)nc2n1C yielded an EC50 of over 200 µM and an IC50 of 10.2 µM.
For O=C(c1ccccc1)N1C(=O)N(c2ccccc2)C(=Nc2ccccc2)C1=Nc1ccccc1, the EC50 was over 200 µM and the IC50 was 19.1 µM.
With COc1ccc(-c2cc(=O)c3c(OC)c(OC)c(OC)c(OC)c3o2)cc1 the EC50 was over 120 µM and the IC50 was 110 µM.
COc1cc(C(O)CCBr)c(OC)cc1C (stereo not given) was tested, and the EC50 was over 200 µM and the IC50 was 2.29 µM.
CCOC(=O)/N=c1/nc(N(C)C)ss1 was tested, and the outcome was “inactive”.
In the case of O=C(O)/C=C/C(=O)NCCCCCCNC(=O)/C=C/C(=O)O, the outcome is reported as “inactive”.
Work on Cc1ccc(S(=O)(=O)Nn2c3c(cc(C#N)c2=O)CCC3)cc1 yielded an EC50 of over 200 µM and an IC50 of over 200 µM.
Work on COc1ccc([C@@H]2CC(=O)NCCCCNCCCN2)cc1 yielded an EC50 of over 200 µM and an IC50 of over 200 µM.
CO[C@@]12CC(=O)/C(=C(O)\C=C\c3ccccc3)C(=O)[C@]1(O)Cc1ccccc1O2 showed an EC50 of over 316 µM and an IC50 of 42.7 µM.
For CCN(CC)C(=S)SCn1nc(Cl)c2ccc([N+](=O)[O-])cc21, the EC50 was over 69.2 µM and the IC50 was 40.7 µM.
With O=S(=O)(N/N=C/c1c(Cl)cccc1Cl)c1ccccc1 the outcome was “inactive”.
Compound CCOC(=O)/C=C1\C(=O)N(Cc2ccccc2)c2ccccc21 has an EC50 of over 200 µM and an IC50 of 1 µM.
Work on CCN(CCN1C(=O)C2CCCCC2C1=O)c1ccc(N=O)c(C)c1 (stereo not given) yielded an EC50 of over 200 µM and an IC50 of 1.78 µM.
COC(=O)C12OC3CO[Si](C(C)C)(C(C)C)O[Si](C(C)C)(C(C)C)OC3C1Oc1nc(=O)ccn12 (stereo not given) showed an EC50 of over 200 µM and an IC50 of 35.5 µM.
In the case of O=C(NC(=O)c1cn(CCN2CCNCC2)c(=O)[nH]c1=O)OCc1ccccc1, the outcome is reported as “inactive”.
In the case of c1ccc(-c2cc(=[N+]3CCOCC3)c3ccccc3o2)cc1, the outcome is reported as “inactive”.
In the case of O=C(O)c1ccccc1C(=O)c1ccc(F)cc1, the outcome is reported as “inactive”.
CC(C)(C)c1cc(Nc2c([N+](=O)[O-])cc([N+](=O)[O-])cc2[N+](=O)[O-])cc(C(C)(C)C)c1O was tested, and the EC50 was over 16.6 µM and the IC50 was over 16.6 µM.
CC(=O)Oc1ccc2c(oc(=O)c3nc(C)oc32)c1C showed an EC50 of over 200 µM and an IC50 of 145 µM.
